The test system of series [1] is IL-6. In words: LPS-stimulated IL-6 production, spleen. Format: cell-based. The following applies: compound 10 nM.
Series [2] deals with TNFa. In words: LPS-stimulated TNFa production, spleen. The format is cell-based. Particulars: compound 10 nM.
For series [3], the system named is IL-6. Nature of the series: LPS-stimulated IL-6 production, hBuffy Coat. Particulars: compound 1 nM. The format is cell-based, human. How it is done:
(§1) The substances can be tested by mixing them with immune cells subject to stimulus and measuring the resulting inflammatory response. A standard assay involves the application of lipopolysaccharide (e.g. 10 μg/mL) to human blood derived immune cells and then detecting the concentration of cytokines (IL-6, TNFa) after 24 h. When tested in this way, the described compounds have the following effects as recorded in Table 2.

For series [4], the system named is TNFa. Nature of the series: LPS-stimulated TNFa production, hBuffy Coat. Format: cell-based, human. The following applies: compound 1 nM. How it is done: as §1
In series [5] the test system is IL-6. In words: LPS-stimulated IL-6 production, BL6 Blood. The format is cell-based. Particulars: compound 100 nM.
Series [6] relates to TNFa. Nature of the series: LPS-stimulated TNFa production, BL6 Blood. Format: cell-based. Particulars: compound 100 nM.

With `C[S+]([O-])c1ccc(-c2nc(-c3ccncc3)c(-c3ccc(F)cc3)[nH]2)cc1` (stereo not shown) [SB203580], the “Amount of cytokine produced as % control: IL_6 Spleen (100 ng LPS) 10 nM” value with IL-6 [1] turned out to be 10 % control. Further, the “Amount of cytokine produced as % control: TNFa Spleen (100 ng LPS) 10 nM” value in the series with TNFa [2] is on record as 11 % control. Moreover, in the series with IL-6 [3], the “Amount of cytokine produced as % control: IL-6 hBuffy Coat (100 ng LPS) 1 nM” value came out at 61 % control. Besides, in the series on TNFa [4], the “Amount of cytokine produced as % control: TNFa hBuffy Coat (100 ng LPS) 1 nM” value was 85 % control. Also, the “Amount of cytokine produced as % control: IL-6 BL6 Blood (500 ng LPS) 100 nM” value in the series with IL-6 [5] was determined as 22 % control. Further, the “Amount of cytokine produced as % control: TNFa BL6 Blood (500 ng LPS) 100 nM” value in the series with TNFa [6] was 4 % control.
A word on the melting point: it is the temperature, or range, at which the solid turns liquid. Consider `COC(=O)c1ccc2c(c1)C(=O)c1ccc(Nc3ccc(F)cc3F)cc1OC2` [Compound 15a, 3-((2,4-Difluorophenyl)amino)-11-oxo-6,11-dihydrobenzo[b,e]oxepin-9-carboxylmethylester], for which the melting point came to 162.7 °C.

These data come from patent US20230017312A1, “CENTRALLY ACTIVE P38ALPHA INHIBITING COMPOUNDS” (Synovo GmbH, priority 2019, published 2023).
